Experimental findings from EP1126030A1, “THIOREDOXIN REDUCTASE II” (priority 1998, dated 2000) are described below.

The target of this assay is T1, flag-tag fused TxRIIα protein (Homo sapiens, UniProt Q9NNW7).
T1 construct: made in house
As to the kind of experiment: Inhibitor assay (DTNB assay of TxR activity). Type of assay: biochemical. The settings on record: diluted series of inhibitor; 1 µM flag-tag fused TxRIIα protein, 1 mM NADPH, 10 mM DTNB, pH 7.2; absorbance at 412 nm at 25°C for 5 min (Figure 5). Here is the method: DTNB assay is a method in which TNB caused by the TxR activity from DTNB is measured by the absorbance of a thiol at 412 nm based on the following reaction formula. The purified tag fused TxRIIα protein (1 to 50 µl) was added to the assay buffer 1 to mess up to 1.0 ml. The absorbance at 412 nm was measured at 25°C for 5 min (Figure 3). DTNB + NADPH + H^+ 2TNB + NADP^+
100 mM potassium phosphate pH 7.0, 10 mM EDTA, 0.25 mM NADPH, 0.2 mg/ml bovine serum albumin (BSA), 1% ethanol, 1 mM DTNB
To compare an enzyme activity of the TxRIIs by the present invention, obtained as a recombinant, and an activity of the natural TxR, an effect of an inhibitor was observed. As an inhibitor for the TxR activity, 1-chloro-2, 4-dinitrobenzene (CDNB) and 13-cis-retinoic acid was used. For confirming the TxR activity, the DTNB assay was used.
The diluted series of the inhibitors was prepared with 0.2 ml of HE buffer (100 mM HEPES buffer pH 7.2, 5 mM EDTA) . The tag-fused TxRIIαprotein was prepared at 3 µM and 0.2 ml thereof was added thereto, then 0.2 ml of HE buffer containing 3 mM NADPH and 30 mM DTNB was added thereto. The reaction system of this solution is composed of 100 mM HEPES buffer pH 7.2, 5 mM EDTA, 1 µM flag-tag fused TxRIIα protein, 1 mM NADPH, and 10 mM DTNB. The […] was measured by absorbance of a thiol at 412 nm at 25°C for 5min.

T1 sequence (Q9NNW7 37-524): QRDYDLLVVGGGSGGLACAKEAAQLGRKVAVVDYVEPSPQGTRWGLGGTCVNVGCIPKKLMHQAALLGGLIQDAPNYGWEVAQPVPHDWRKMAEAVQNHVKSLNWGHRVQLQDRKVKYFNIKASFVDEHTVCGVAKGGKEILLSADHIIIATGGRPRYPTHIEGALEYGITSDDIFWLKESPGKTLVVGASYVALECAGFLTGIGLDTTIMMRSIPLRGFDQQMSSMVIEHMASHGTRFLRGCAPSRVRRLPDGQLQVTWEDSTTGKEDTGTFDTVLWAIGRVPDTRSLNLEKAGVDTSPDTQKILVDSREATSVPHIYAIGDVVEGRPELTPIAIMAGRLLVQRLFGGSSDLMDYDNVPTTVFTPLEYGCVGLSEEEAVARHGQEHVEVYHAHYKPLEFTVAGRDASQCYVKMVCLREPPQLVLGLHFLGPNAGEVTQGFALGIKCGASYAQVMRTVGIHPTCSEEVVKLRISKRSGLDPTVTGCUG

Consider `CC1=C(/C=C/C(C)=C/C=C/C(C)=C\C(=O)O)C(C)(C)CCC1` [13-cis retinoic acid, 13-cis-retinoic acid], for which the “inhibition of the TxR activity of the purified flag-tag fused TxRIIα protein” value is reported as “effectively inhibited”.
Then `O=[N+]([O-])c1ccc(Cl)c([N+](=O)[O-])c1` [CDNB, 1-chloro-2,4-dinitrobenzene], with “effectively inhibited”.
